One test addresses T1, Glucocorticoid Receptor (Homo sapiens, UniProt P04150).
T1 construct: These cells express large amount of the GR and are very responsive to GC treatment; endogenous in cells; host or cells: A549 cells transiently transfected with the MMTV-LUC reporter
T1 sequence (P04150 1-777): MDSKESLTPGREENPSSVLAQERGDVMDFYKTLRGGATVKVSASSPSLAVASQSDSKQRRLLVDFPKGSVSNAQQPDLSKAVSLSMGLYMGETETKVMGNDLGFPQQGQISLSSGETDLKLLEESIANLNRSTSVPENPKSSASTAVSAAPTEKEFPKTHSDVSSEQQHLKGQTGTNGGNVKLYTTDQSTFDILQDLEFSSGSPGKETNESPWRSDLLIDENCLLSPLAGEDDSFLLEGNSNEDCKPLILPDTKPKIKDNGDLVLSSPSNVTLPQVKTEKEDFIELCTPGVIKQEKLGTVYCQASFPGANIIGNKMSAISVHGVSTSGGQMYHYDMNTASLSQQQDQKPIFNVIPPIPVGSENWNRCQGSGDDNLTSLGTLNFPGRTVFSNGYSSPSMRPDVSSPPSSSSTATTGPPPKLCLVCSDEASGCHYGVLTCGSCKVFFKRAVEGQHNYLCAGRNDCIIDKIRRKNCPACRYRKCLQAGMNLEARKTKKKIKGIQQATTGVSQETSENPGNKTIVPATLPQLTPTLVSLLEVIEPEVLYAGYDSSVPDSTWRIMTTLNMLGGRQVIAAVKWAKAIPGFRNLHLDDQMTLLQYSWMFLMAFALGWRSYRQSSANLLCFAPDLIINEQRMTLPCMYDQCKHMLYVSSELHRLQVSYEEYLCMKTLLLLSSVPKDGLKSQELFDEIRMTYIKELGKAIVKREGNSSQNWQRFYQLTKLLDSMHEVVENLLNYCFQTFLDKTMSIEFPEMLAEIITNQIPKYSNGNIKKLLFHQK
Nature of the test: Trans-Activation Modulation of Glucocorticoid Receptor (GRAMMER), MMTV-LUC reporter gene in A549 cells. Conditions: Table 1; for Transactivation A549 Cells GRAMMER Emax / Emax: Emax relative to 300 nM dexamethasone; for EC50: inflection point, read-out: Transactivation A549 Cells GRAMMER IP; for Transactivation A549 Cells GRAMMER Emax / EC50: A549 cells; for Emax: A549, A549 cells, read-out: Transactivation A549 Cells GRAMMER Emax. In kind it is cell-based. The method in brief: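 Luciferase from a transiently transfected MMTV-LUC reporter was measured after 24 h compound exposure (≤1% DMSO) in A549 or MDA-MB-453 cells. For antagonism, the decrease of 10 nM dexamethasone-induced signal was calculated. For agonism, Emax was referenced to 300 nM dexamethasone.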
Background: Reporter assays use an easily measured gene product as a stand-in for the process of interest.

The target in the next test is T2, human GR (Homo sapiens, UniProt P04150).
T2 construct: U937 cells contain an endogenous glucocorticoid receptor (GR); endogenous in cells; host or cells: U937 cells stably transfected with the TNF-alpha promoter/beta-lactamase reporter
T2 sequence (P04150 1-777): T1 sequence (P04150 1-777)
Nature of the test: Transrepression Assay (GITAR), TNFα-β-lactamase reporter gene in U937 cells. The note with it: for GITAR Greater than by GRAMMER % SEP: GITAR Emax minus GRAMMER Emax; for EC50: inflection point, read-out: Transrepression U937 Cells GITAR IP; for EC50 / Transrepression U937 Cells GITAR Emax: U937 cells. The class given is cell-based. The procedure, abridged: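 Repression of PMA (5 ng/ml final)/LPS (100 ng/ml final)-induced TNF-α promoter activity, read as β-lactamase cleavage of CCF2-AM, in stably transfected U937 cells expressing native GR. Compound added 30-45 min before stimulation, overnight (~18 hr) 37° C; normalized to 100 nM dexamethasone (100%).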

For test [1], the target named is T3, glucocorticoid receptor (GR) (Homo sapiens, UniProt P04150).
T3 sequence (P04150 1-777): T1 sequence (P04150 1-777)
In words: Ligand binding assay (GR BIND), 3H-dexamethasone displacement in MDA-MB-453 cell lysate. The note with it: GR BIND Ki, Table 1.

The mark [2] stands for this setting: U-937, U937 cells, activity repressed by 100 nM dexamethasone = 100%, Table 1, read-out: Transrepression U937 Cells GITAR Emax.
[3] abbreviates: U-937, text statement, 100 nM dexamethasone = 100%, read-out: maximal activity in the transrepression assay (GITAR).
The mark [4] stands for this setting: activity repressed by 100 nM dexamethasone = 100%, Table 1.

Where two headings read alike, the source gives them in different places.

For the molecule `CN(CC(O)C(F)(F)F)C(=O)[C@H]1CCC2=Cc3c(cnn3-c3ccccc3)C[C@@]21C` (stereo partly drawn) [Compound 74, (4αR,5S)-N,4α-dimethy1-1-phenyl-N-(3,3,3-trifluoro-2-hydroxypropyl)-1,4,4α,5,6,7-hexahydrocyclopenta[f]indazole-5-carboxamide], at Glucocorticoid Receptor, the “Transactivation A549 Cells GRAMMER Emax” value was determined as 38.8% and the EC50 stood at 276 nM. Further, at human GR (Table 1), the “GITAR Greater than by GRAMMER % SEP” value is listed as 35.1% and the EC50 is 381 nM. Moreover, the Emax on human GR (setting [2]) came out at 73.9%. The Emax at human GR (setting [3]) is greater than 5%. Also, the Ki (in general, a measure of affinity in units of concentration, obtained from inhibition or displacement) in test [1] amounted to 10.6 nM.
For `CN(CC(O)C(F)(F)F)C(=O)[C@H]1CCC2=Cc3c(cnn3-c3ccccc3)C[C@@]21C` (stereo partly drawn) [Compound 75, (4αR,5S)-N,4α-dimethyl-1-phenyl-N-(3,3,3-trifluoro-2-hydroxypropyl)-1,4,4α,5 ,6,7-hexahydrocyclopenta[f]indazole-5-carboxamide], at Glucocorticoid Receptor, the “Transactivation A549 Cells GRAMMER Emax” value is 65.2% and the EC50 came out at 164 nM. Further, at human GR (Table 1), the “GITAR Greater than by GRAMMER % SEP” value came out at 18.9% and the EC50 amounted to 181 nM. Further, at human GR (setting [4]), the “Transrepression U937 Cells GITAR Emax” value worked out at 84.0%. In addition, in test [1], the affinity corresponds to a Ki of 7.6 nM.
Consider `CCN(CC(O)C(F)(F)F)C(=O)[C@H]1CCC2=Cc3c(cnn3-c3ccccc3)C[C@@]21C` (stereo partly drawn) [Compound 76, (4αR,5S)-N-ethyl-4α-methyl-1-phenyl-N-(3,3,3-trifluoro-2-hydroxypropyl)-1,4,4α,5,6,7-hexahydrocyclopenta[f]indazole-5-carboxamide], for which the figures for the Emax at Glucocorticoid Receptor, at human GR (setting [2]) and on human GR (setting [3]) were 78.2%, 84.3% and greater than 5%, respectively. In addition, the values for the EC50 on Glucocorticoid Receptor and at human GR (Table 1) were 314 nM and 225 nM, respectively. Also, the “GITAR Greater than by GRAMMER % SEP” value on human GR (Table 1) was found to be 6.1%. This molecule gave an inhibition constant Ki in test [1] of 4.2 nM.
As to `CCN(CC(O)C(F)(F)F)C(=O)[C@H]1CCC2=Cc3c(cnn3-c3ccccc3)C[C@@]21C` (stereo partly drawn) [Compound 77, (4αR,5S)-N-ethyl-4α-methyl-1-phenyl-N-(3,3,3-trifluoro-2-hydroxypropyl)-1,4,4α,5,6,7-hexahydrocyclopenta[f]indazole-5-carboxamide], at Glucocorticoid Receptor, the “Transactivation A549 Cells GRAMMER Emax” value is 67.8% and the EC50 was determined as 304 nM. In addition, at human GR (Table 1), the “GITAR Greater than by GRAMMER % SEP” value was determined as 10.2% and the EC50 turned out to be 266 nM. For the same molecule, the “Transrepression U937 Cells GITAR Emax” value on human GR (setting [4]) worked out at 78.0%. This molecule also registered an inhibition constant Ki in test [1] of 9.8 nM.
As for `CCCN(CC(O)C(F)(F)F)C(=O)[C@H]1CCC2=Cc3c(cnn3-c3ccccc3)C[C@@]21C` (stereo partly drawn) [Compound 78, (4αR,5S)-4α-methyl-1-phenyl-N-propyl-N-(3,3,3-trifluoro-2-hydroxypropyl)-1,4,4α,5,6,7-hexahydrocyclopenta[f]indazole-5-carboxamide], the Emax at Glucocorticoid Receptor is 65%; at human GR (setting [2]), 86%; on human GR (setting [3]), greater than 5%. The EC50 at Glucocorticoid Receptor worked out at 165 nM; at human GR (Table 1) it was 179 nM. In addition, at human GR (Table 1), the “GITAR Greater than by GRAMMER % SEP” value was 21.0%. The molecule further had a Ki in test [1] of 2.7 nM.
For `CCCCN(CC(O)C(F)(F)F)C(=O)[C@H]1CCC2=Cc3c(cnn3-c3ccccc3)C[C@@]21C` (stereo partly drawn) [Compound 79, (4αR,5S)-N-butyl-4α-methyl-1-phenyl-N-(3,3,3-trifluoro-2-hydroxypropyl)-1,4,4α,5,6,7-hexahydrocyclopenta[f]indazole-5-carboxamide], the figures for the Emax at Glucocorticoid Receptor, at human GR (setting [2]) and at human GR (setting [3]) were 70.7%, 88.3% and greater than 5%, respectively. Besides, the EC50 at Glucocorticoid Receptor came out at 180 nM; at human GR (Table 1), 163 nM. Moreover, the “GITAR Greater than by GRAMMER % SEP” value at human GR (Table 1) was determined as 17.6%. Besides, in test [1], the Ki was determined as 3.8 nM.
As for `CC(C)CN(CC(O)C(F)(F)F)C(=O)[C@H]1CCC2=Cc3c(cnn3-c3ccccc3)C[C@@]21C` (stereo partly drawn) [Compound 80, (4αR,5S)-N-isobutyl-4a-methyl-1-phenyl-N-(3,3,3-trifluoro-2-hydroxypropyl)-1,4,4α,5,6,7-hexahydrocyclopenta[f]indazole-5-carboxamide], the Emax is 70.5% at Glucocorticoid Receptor, 83.2% at human GR (setting [2]) and greater than 5% at human GR (setting [3]). The EC50 is 222 nM on Glucocorticoid Receptor and 337 nM at human GR (Table 1). In addition, the “GITAR Greater than by GRAMMER % SEP” value at human GR (Table 1) is listed as 12.8%. Moreover, in test [1], the inhibition constant Ki was 3.7 nM.
Regarding `C[C@]12Cc3cnn(-c4ccccc4)c3C=C1CC[C@@H]2C(=O)N(CC1CC1)CC(O)C(F)(F)F` (stereo partly drawn) [Compound 81, (4αR,5S)-N-(cyclopropylmethyl)-4α-methyl-1-phenyl-N-(3,3,3-trifluoro-2-hydroxypropyl)-1,4,4α,5,6,7-hexahydrocyclopenta[f]indazole-5-carboxamide], the Emax on Glucocorticoid Receptor is 67.8%; at human GR (setting [2]) it was 75.6%; on human GR (setting [3]), greater than 5%. The EC50 on Glucocorticoid Receptor was 293 nM; on human GR (Table 1) it was 337 nM. For the same molecule, the “GITAR Greater than by GRAMMER % SEP” value on human GR (Table 1) is recorded as 7.8%. The same molecule yielded an inhibitory constant (Ki) in test [1] of 3.6 nM.
`Cc1ccc(CCN(CC(O)C(F)(F)F)C(=O)[C@H]2CCC3=Cc4c(cnn4-c4ccc(F)cc4)C[C@@]32C)cc1` (stereo partly drawn) [Compound 82, (4αR,5S)-1-(4-fluorophenyl)-4α-methyl-N-[2-(4-methylphenyl)ethyl]-N-(3,3,3-trifluoro-2-hydroxypropyl)-1,4,4α,5,6,7-hexahydrocyclopenta[f]indazole-5-carboxamide]: the Emax is 10.3% at Glucocorticoid Receptor, 43.1% at human GR (setting [2]) and greater than 5% at human GR (setting [3]). For the same molecule, the results for the EC50 at Glucocorticoid Receptor and on human GR (Table 1) were 274 nM and 362 nM, respectively. In addition, on human GR (Table 1), the “GITAR Greater than by GRAMMER % SEP” value is 32.8%. In test [1], this molecule displayed a Ki of 0.9 nM.
Take `COc1ccccc1CCN(CC(O)C(F)(F)F)C(=O)[C@H]1CCC2=Cc3c(cnn3-c3ccc(F)cc3)C[C@@]21C` (stereo partly drawn) [Compound 83, (4αR,5S)-1-(4-fluorophenyl)-N-[2-(2-methoxyphenyl)ethyl] -4α-methyl-N-(3,3,3-trifluoro-2-hydroxypropyl)-1,4,4α,5,6,7-hexahydrocyclopenta[f]indazole-5-carboxamide]: the Emax was 21.6% at Glucocorticoid Receptor, 56.9% at human GR (setting [2]) and greater than 5% at human GR (setting [3]). Also, the EC50 on Glucocorticoid Receptor came out at 366 nM; on human GR (Table 1), 293 nM. In addition, the “GITAR Greater than by GRAMMER % SEP” value on human GR (Table 1) is 35.3%. The same molecule showed a Ki in test [1] of 2.2 nM.
For the molecule `C[C@]12Cc3cnn(-c4ccc(F)cc4)c3C=C1CC[C@@H]2C(=O)N(CCc1ccccc1F)CC(O)C(F)(F)F` (stereo partly drawn) [Compound 84, (4αR,5S)-1-(4-fluorophenyl)-N-[2(2-fluorophenyl)ethyl]-4α-methyl-N-(3,3,3-trifluoro-2-hydroxypropyl)-1,4,4α,5,6,7-hexahydrocyclopenta[f]indazole-5-carboxamide], on Glucocorticoid Receptor, the “Transactivation A549 Cells GRAMMER Emax” value is 43.7% and the EC50 came to 188 nM. At human GR (Table 1), the “GITAR Greater than by GRAMMER % SEP” value is 25.7% and the EC50 was 191 nM. In addition, the “Transrepression U937 Cells GITAR Emax” value on human GR (setting [4]) turned out to be 69.4%. At human GR (setting [3]), the Emax was greater than 5%. Also, the inhibition constant Ki in test [1] is 0.8 nM.
Take `Cc1ccc(CCN(CC(O)CC(F)(F)F)C(=O)[C@H]2CCC3=Cc4c(cnn4-c4ccc(F)cc4)C[C@@]32C)cc1` (stereo partly drawn) [Compound 85, (4αR,5S)-1-(4-fluorophenyl)-4α-methyl-N-[2-(4-methylphenyl)ethyl]-N-(4,4,4-trifluoro-2-hydroxybutyl)-1,4,4α,5,6,7-hexahydrocyclopenta[f]indazole-5-carboxamide]: the Emax on Glucocorticoid Receptor is 14.2%; on human GR (setting [2]) it was 45.3%; on human GR (setting [3]) it was greater than 5%. For the same molecule, the figures for the EC50 at Glucocorticoid Receptor and on human GR (Table 1) were 399 nM and 818 nM, respectively. Further, on human GR (Table 1), the “GITAR Greater than by GRAMMER % SEP” value came to 31.1%. This molecule also gave a Ki in test [1] of 3.5 nM.

The values above are taken from patent US8338472B2, “Hexahydrocyclopentyl[F]indazole carboxamides and derivatives thereof as selective glucocorticoid receptor modulators” (Merck Sharp & Dohme Corp., priority 2008, dated 2012).
